Laboratory results as given in patent US20240165123A1, “USE OF A COMPOUND CONTAINING A TRICYCLIC HETEROARYL GROUP” (CSPC Zhongqi Pharmaceutical Technology (Shijiazhuang) Co., …, priority 2021, published 2024).

Key:
[1] = Toxicity test of single oral gavage administration in Beagle dogs; assay type: in vivo; conditions: administered twice within 24 hours
Method: (§1) According to the general toxicology study in accordance with the NMPA “Good Laboratory Practice for Non-clinical Laboratory Studies” and FDA GLP specification (21CFR Part 58), and in line with the requirements of International Conference on Harmonization of Technical Requirements for Registration of Pharmaceuticals for Human Use (ICH) and the NMPA relevant guidelines, the toxicology study on Compound (I) was carried out to provide safety data support for the use of Compound (I) in clinical patients. The administration mode and the experimental results were as follows: […]

[2] = Toxicity test of oral gavage administration in SD rats, 28 consecutive days; assay type: in vivo; conditions: for AUC: NOAEL 10 mg/kg/time BID, 28-day test; for Safety window, exposure method: NOAEL 28-day test
Method: as §1

[3] = Toxicity test of oral gavage administration in Beagle dogs, 28 consecutive days; assay type: in vivo; conditions: for AUC: NOAEL 3 mg/kg/time BID, 28-day test
Method: as §1

JAK1 = JAK1 (Homo sapiens, UniProt P23458); experiment: Kinase activity inhibition test (Mobility Shift Assay); assay type: biochemical; conditions: 66 μM ATP
JAK1, sequence (P23458 whole entry, species assumed): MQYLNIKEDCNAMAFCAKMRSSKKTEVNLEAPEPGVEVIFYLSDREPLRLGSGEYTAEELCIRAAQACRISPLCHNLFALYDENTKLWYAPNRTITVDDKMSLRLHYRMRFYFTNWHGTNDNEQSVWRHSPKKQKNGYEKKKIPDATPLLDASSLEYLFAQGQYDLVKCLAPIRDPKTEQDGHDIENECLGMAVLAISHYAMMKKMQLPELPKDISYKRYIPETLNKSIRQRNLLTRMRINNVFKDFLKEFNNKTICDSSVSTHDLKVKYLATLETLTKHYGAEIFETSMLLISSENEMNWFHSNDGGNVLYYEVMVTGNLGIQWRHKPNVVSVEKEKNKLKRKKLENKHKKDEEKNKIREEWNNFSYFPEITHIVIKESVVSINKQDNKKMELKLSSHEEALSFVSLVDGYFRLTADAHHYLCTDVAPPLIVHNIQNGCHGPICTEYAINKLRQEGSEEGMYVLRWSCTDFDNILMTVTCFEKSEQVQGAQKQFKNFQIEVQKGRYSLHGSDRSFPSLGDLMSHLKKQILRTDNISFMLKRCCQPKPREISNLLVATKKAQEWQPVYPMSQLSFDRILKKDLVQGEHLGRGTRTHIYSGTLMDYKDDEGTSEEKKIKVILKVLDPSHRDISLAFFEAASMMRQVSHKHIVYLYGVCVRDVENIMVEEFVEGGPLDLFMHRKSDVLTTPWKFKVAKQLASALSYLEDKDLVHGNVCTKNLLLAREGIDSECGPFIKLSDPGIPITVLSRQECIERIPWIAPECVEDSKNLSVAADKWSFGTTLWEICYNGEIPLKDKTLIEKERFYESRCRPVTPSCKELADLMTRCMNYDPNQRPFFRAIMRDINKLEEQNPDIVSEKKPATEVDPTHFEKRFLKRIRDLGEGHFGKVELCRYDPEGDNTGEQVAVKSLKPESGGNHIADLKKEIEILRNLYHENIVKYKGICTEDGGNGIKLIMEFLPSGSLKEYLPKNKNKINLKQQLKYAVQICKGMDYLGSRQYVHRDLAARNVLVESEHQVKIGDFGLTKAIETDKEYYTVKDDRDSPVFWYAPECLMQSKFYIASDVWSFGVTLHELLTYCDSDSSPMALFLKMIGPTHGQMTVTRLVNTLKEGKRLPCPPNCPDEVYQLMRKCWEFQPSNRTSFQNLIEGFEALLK
Method: (§2) • 1. kinases: SYK, JAK1, JAK2, JAK3 and TYK2 • 2. test method
(§3) Protein kinase activity was determined by Mobility Shift Assay. Compound (I) was dissolved in DMSO and prepared into concentration gradients in 100% DMSO. By the dilution with the kinase buffer, 5 μL of Compound (I) (10% DMSO) was added to a 384-well plate at 5 folds of the final reaction concentration. 10 μL of 2.5-fold enzyme solution was added and the incubation was performed at room temperature for 10 min, followed by the addition of 10 μL of 2.5-fold substrate solution. The incubation was performed at 28° C. for 60 min and […] of stop solution was added to the 384-well reaction plate to terminate the reaction (100 mM HEPES, pH 7.5, 0.015% Brij-35, 0.2% Coating Reagent #3, 50 mM EDTA). The conversion data was copied from the Caliper EZ Reader, and converted into the inhibition data, % inhibition=(max-conversion)/(max-min)×100%, wherein, “min” is the conversion for the control sample well where the reaction was performed without adding the enzyme; and “max” is the conversion for the control well where DMSO was added. The curve was drawn with the compound concentration and the inhibition rate as the horizontal and vertical is coordinates, and the IC50 value was calculated by fitting with XLFit excel add-in version 5.4.0.8. Fitting equation:
(§4) Y=Bottom+(Top-Bottom)/(1+(IC50/X)^HillSlope).

SYK = SYK (Homo sapiens, UniProt P43405); experiment: as above; assay type: biochemical; conditions: 2 μM ATP
Method: as §2, §3, §4

[4] = Phase I clinical trial, single ascending dose; assay type: in vivo; conditions: human; single ascending dose up to 240 mg
Method: Compound (I) had no effect on the central nervous system, respiratory system and cardiovascular system of animals, and was expected to have no side effects on the central nervous system, respiratory system and cardiovascular system of human. The NOAEL of single administration to rats was 2000 mg/kg, the MTD of administration to Beagle dogs was 500 mg/kg/time (1000 mg/kg/day), the NOAEL of repeated administration to rats for 28 days was 10 mg/kg/time (20 mg/kg/day), and the NOAEL of repeated administration to Beagle dogs for 28 days was 3 mg/kg/time (6 mg/kg/ day). […] The effective dose for rats was 3 mg/kg/time bid. According to the exposure, Compound (I) had 1-fold safety window in Beagles and 8-13-fold safety window in SD rats. According to the dose calculation, Compound (I) had 3-fold safety windows in both Beagle dogs and SD rats. The proposed and undetermined initial ascending dose of Compound (I) in the first-in-human trial was 15 mg. […] Therefore, according to the pre-clinical toxicological study data of Compound (I), the single ascending doses of phase I clinical trial to be carried out were 15 mg, 45 mg, 60 mg, 90 mg, 135 mg, 180 mg, 240 mg, 300 mg and 360 mg.

in vivo = experiment: in vivo; set-up: species or system SD rats; conditions: SD, rat, po
Method: as §1

[5] = Effect on central nervous, respiratory and cardiovascular system of animals; assay type: in vivo
Method: as §1

## NC(=O)c1cnc(Nc2ccc3c(c2)OC[C@H]2CN(S(=O)(=O)C4CC4)CCN32)nc1NC1CC1 [Compound (I), (R)-4-(cyclopropylamino)-2-((3-(cyclopropylsulfonyl)-1,2,3,4,4a,5-hexahydrobenzo[b]pyrazolo[1,2-d][1,4]oxazin-8-yl)amino)pyrimidine-5-arboxamide]
[1]
  MTD: 500 mg/kg/time
[1]; dog, in vivo
  MTD at 24 h: 1000 mg/kg/day
[2]; SD rats, both sexes, NOAEL 28-day test vs rat effective dose exposure
  Safety window, according to the exposure: 8-13 fold
[2]; SD rats, NOAEL 28-day test vs rat effective dose
  Safety window, dose method: 3 fold
[2]; SD, rat, in vivo, 28 days
  Safety window of human equivalent dose of NOAEL relative to the human initial dose: 16 fold
[2]; SD, rat, in vivo, po
  NOAEL at 28 days: 20 mg/kg/day
[2]; female, SD, rat, in vivo, po, rats ♀
  AUC: 58100 ng·h/mL
[2]; male, SD, rat, in vivo, po, rats ♂
  AUC: 33900 ng·h/mL
[2]; of NOAEL for 28-day test of rats
  Human equivalent dose (based on 60 kg body weight): 242 mg
[2]; rat, in vivo, po
  NOAEL of repeated administration for 28 days: 10 mg/kg/time
[2]; rats ♀
  Safety window, exposure method: ♀13 fold
[2]; rats ♂
  Safety window, exposure method: ♂8 fold
[3]; Beagle dogs, NOAEL 28-day test vs rat effective dose
  Safety window, dose method: 3 fold
[3]; Beagle dogs, NOAEL 28-day test vs rat effective dose exposure
  Safety window, exposure method: 1 fold
[3]; beagle, dog, in vivo, 28 days
  Safety window of human equivalent dose of NOAEL relative to the human initial dose: 14 fold
[3]; beagle, dog, in vivo, po
  NOAEL at 28 days: 6 mg/kg/day
[3]; dog, in vivo, po
  NOAEL of repeated administration for 28 days: 3 mg/kg/time
[3]; female, beagle, dog, in vivo, po, dogs ♀
  AUC: 3930 ng·h/mL
[3]; male, beagle, dog, in vivo, po, dogs ♂
  AUC: 3300 ng·h/mL
[3]; of NOAEL for 28-day test of dogs
  Human equivalent dose (based on 60 kg body weight): 210 mg
JAK1
  IC50: 20 nM
SYK
  IC50: 7.25 nM
Genotoxicity
  Genotoxicity: no genotoxicity
[4]
  Safety in phase I clinical trial: no safety issues above Level 3
In vivo
  NOAEL: 2000 mg/kg
[5]
  Effect on the central nervous system, respiratory system and cardiovascular system: no effect
